We go through 77 compounds from the supplement of paper PMC8372320.
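Further: aromatic molecules in triethylamine/methanol/water with Pt photoreduced in situ, irradiated 3 h under a 1 sun AM 1.5G solar simulator (350–1000 nm), H2 quantified by headspace gas chromatography; listed molecule itself used as the photocatalyst at 5 mg per vial.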

The series in a line: photocatalytic hydrogen evolution rate (per 5 mg catalyst); higher = more photocatalytic H2 evolution; extreme values may be limits of the assay. Conditions: catalyst mass (mg): 5; Pt cocatalyst (wt%): 3; sacrificial medium: triethylamine/methanol/water 1:1:1.
Regarding `O=Cc1cc(O)c(O)cc1O`, the “photocatalytic hydrogen evolution rate” value amounted to 0 µmol/h.

As for `Nc1ccc(C(c2ccc(N)cc2)(c2ccc(N)cc2)c2ccc(N)cc2)cc1`, the “photocatalytic hydrogen evolution rate” value was 0 µmol/h.

As to `c1ccc(-c2nc(-c3ccccc3)nc(-c3ccc(-c4ccc(-c5nc(-c6ccccc6)nc(-c6ccccc6)n5)cc4)cc3)n2)cc1`, the “photocatalytic hydrogen evolution rate” value worked out at 0 µmol/h.

Regarding `Brc1cnc(Br)s1`, the “photocatalytic hydrogen evolution rate” value was determined as 0 µmol/h.

For the compound `COc1cc(C#N)c(C#N)cc1OC`, the “photocatalytic hydrogen evolution rate” value worked out at 0 µmol/h.

In the case of `O=Cc1ccc(Br)cc1`, the “photocatalytic hydrogen evolution rate” value was 0.624 µmol/h.

As for `O=C(c1ccc(Br)cc1)c1ccc(Br)cc1`, the “photocatalytic hydrogen evolution rate” value stood at 6.77 µmol/h.

With `O=Cc1c(F)c(F)c(C=O)c(F)c1F`, the “photocatalytic hydrogen evolution rate” value worked out at 0.177 µmol/h.

For `O=C(O)c1ccc(-c2ccc(-c3cc(-c4ccc(-c5ccc(C(=O)O)cc5)cc4)cc(-c4ccc(-c5ccc(C(=O)O)cc5)cc4)c3)cc2)cc1`, the “photocatalytic hydrogen evolution rate” value was 0 µmol/h.

In the case of `CC1(C)c2cc(B3OC(C)(C)C(C)(C)O3)ccc2-c2ccc(B3OC(C)(C)C(C)(C)O3)cc21`, the “photocatalytic hydrogen evolution rate” value is 0.0142 µmol/h.

As to `Brc1ccc2c(c1)C1(c3cc(Br)ccc3-2)c2cc(Br)ccc2-c2ccc(Br)cc21`, the “photocatalytic hydrogen evolution rate” value was 0.0511 µmol/h.

On to `CCCc1ccc(C(=O)CC#N)cc1`, for which the “photocatalytic hydrogen evolution rate” value was found to be 0.0555 µmol/h.

Regarding `Cc1c2ccccc2c(C)c2ccccc12`, the “photocatalytic hydrogen evolution rate” value was 0.68 µmol/h.

As to `N#CCC(=O)c1ccc2c(c1)CCCC2`, the “photocatalytic hydrogen evolution rate” value stood at 0 µmol/h.

For the compound `O=c1c2ccccc2c2cc3c(=O)c4ccccc4c3cc12`, the “photocatalytic hydrogen evolution rate” value was 0 µmol/h.

For `O=Cc1cccc(O)c1`, the “photocatalytic hydrogen evolution rate” value amounted to 0 µmol/h.

As for `N#Cc1c(F)c(F)c(F)c(F)c1C#N`, the “photocatalytic hydrogen evolution rate” value came to 4.24 µmol/h.

Turning to `Nc1cccc2c(N)cccc12`, the “photocatalytic hydrogen evolution rate” value was 0 µmol/h.

Consider `c1ccc2c(c1)c1ccccc1n2-c1ccc(N(c2ccc(-n3c4ccccc4c4ccccc43)cc2)c2ccc(-n3c4ccccc4c4ccccc43)cc2)cc1`, for which the “photocatalytic hydrogen evolution rate” value came to 0 µmol/h.

Consider `O=Cc1cccc(C(=O)O)c1`, for which the “photocatalytic hydrogen evolution rate” value turned out to be 1.06 µmol/h.

As for `BrCc1cc(Br)cc(Br)c1`, the “photocatalytic hydrogen evolution rate” value came to 0 µmol/h.

For the compound `O=C(O)c1c(F)c(F)c(C(=O)O)c(F)c1F`, the “photocatalytic hydrogen evolution rate” value came to 0 µmol/h.

Take `Nc1ccc(Br)cc1Br`: the “photocatalytic hydrogen evolution rate” value came to 0 µmol/h.

Consider `Brc1ccc(-c2ccc(-c3ccc(Br)s3)s2)s1`, for which the “photocatalytic hydrogen evolution rate” value was 0 µmol/h.

Consider `O=C(O)c1ccc(-c2ccccc2)cc1`, for which the “photocatalytic hydrogen evolution rate” value stood at 0 µmol/h.

As for `Cc1cc2c(cc1N)S(=O)(=O)c1cc(N)c(C)cc1-2`, the “photocatalytic hydrogen evolution rate” value was determined as 0 µmol/h.

Consider `CC1(C)c2ccccc2Oc2ccccc21`, for which the “photocatalytic hydrogen evolution rate” value amounted to 0.0132 µmol/h.

`c1ccc(-c2ccccn2)nc1`: the “photocatalytic hydrogen evolution rate” value worked out at 0 µmol/h.

As to `O=Cc1ccc(-c2ccc(C=O)cn2)nc1`, the “photocatalytic hydrogen evolution rate” value came out at 0.927 µmol/h.

Turning to `N#Cc1c(O)ccc(O)c1C#N`, the “photocatalytic hydrogen evolution rate” value is 0 µmol/h.

Regarding `N#Cc1ccnc(Br)c1`, the “photocatalytic hydrogen evolution rate” value was 0.0187 µmol/h.

As for `Nc1ccc(S(=O)(=O)c2ccc(N)cc2)cc1`, the “photocatalytic hydrogen evolution rate” value was 0.00797 µmol/h.

As to `O=Cc1ccc(C#Cc2ccccc2)cc1`, the “photocatalytic hydrogen evolution rate” value worked out at 1.66 µmol/h.

Consider `O=Cc1ccc(O)c(Cl)c1`, for which the “photocatalytic hydrogen evolution rate” value stood at 0.0661 µmol/h.

For the compound `O=C(O)c1c2ccccc2c(C(=O)O)c2ccccc12`, the “photocatalytic hydrogen evolution rate” value was found to be 0 µmol/h.

For `N#Cc1cccc(F)c1F`, the “photocatalytic hydrogen evolution rate” value was determined as 0 µmol/h.

With `Cc1cc(C=O)ccc1O`, the “photocatalytic hydrogen evolution rate” value came out at 0.0172 µmol/h.

For the compound `NNC(=O)c1cc(Br)c(O)c(Br)c1`, the “photocatalytic hydrogen evolution rate” value amounted to 0 µmol/h.

With `Oc1c(Br)c(O)c(Br)c(O)c1Br`, the “photocatalytic hydrogen evolution rate” value came out at 0 µmol/h.

In the case of `Oc1c(Br)cc(Br)cc1Br`, the “photocatalytic hydrogen evolution rate” value is 0.0139 µmol/h.

As for `c1ccc2ccccc2c1`, the “photocatalytic hydrogen evolution rate” value came to 0 µmol/h.

For the compound `CCN(CCO)c1ccc(N=Nc2ccc([N+](=O)[O-])cc2)cc1`, the “photocatalytic hydrogen evolution rate” value is 0 µmol/h.

On to `Nc1c(Br)cnc(Cl)c1Br`, for which the “photocatalytic hydrogen evolution rate” value stood at 0 µmol/h.

Consider `O=C1C=CC(=O)c2ccccc21`, for which the “photocatalytic hydrogen evolution rate” value came to 0 µmol/h.

Take `N#Cc1nccnc1C#N`: the “photocatalytic hydrogen evolution rate” value was determined as 0 µmol/h.

Take `Brc1ccc(I)cc1`: the “photocatalytic hydrogen evolution rate” value worked out at 0 µmol/h.

Consider `N#Cc1cc(F)cc(C#N)c1`, for which the “photocatalytic hydrogen evolution rate” value was 0 µmol/h.

Turning to `O=Cc1ccnc(-c2cc(C=O)ccn2)c1`, the “photocatalytic hydrogen evolution rate” value was 0 µmol/h.

As to `O=Cc1ccc(-c2cccnc2)cc1`, the “photocatalytic hydrogen evolution rate” value came to 3.58 µmol/h.

On to `COC(=O)c1nc(N)c(Br)cc1Br`, for which the “photocatalytic hydrogen evolution rate” value was found to be 0 µmol/h.

`Brc1ccc(Br)c2nsnc12`: the “photocatalytic hydrogen evolution rate” value turned out to be 1.29 µmol/h.

Turning to `Cc1ncc[nH]1`, the “photocatalytic hydrogen evolution rate” value turned out to be 0 µmol/h.

With `COC(=O)c1ccc2cc(B3OC(C)(C)C(C)(C)O3)ccc2c1`, the “photocatalytic hydrogen evolution rate” value stood at 1.49 µmol/h.

In the case of `N#Cc1ccccc1-c1ccccc1C#N`, the “photocatalytic hydrogen evolution rate” value is 0 µmol/h.

With `O=Cc1ccc2c(c1)c1ccccc1n2-c1ccccc1`, the “photocatalytic hydrogen evolution rate” value turned out to be 2.51 µmol/h.

Turning to `O=C(c1ccccc1)c1cc(C(=O)c2ccccc2)cc(C(=O)c2ccccc2)c1`, the “photocatalytic hydrogen evolution rate” value turned out to be 14.2 µmol/h.

On to `O=C1CCc2cccc(O)c21`, for which the “photocatalytic hydrogen evolution rate” value stood at 2.68 µmol/h.

For the compound `N#Cc1cccc(-c2cccc(C=O)c2)c1`, the “photocatalytic hydrogen evolution rate” value was found to be 1.09 µmol/h.

Turning to `O=S1(=O)c2ccccc2-c2ccccc21`, the “photocatalytic hydrogen evolution rate” value was 0.222 µmol/h.

Turning to `c1cc2ccc3cccc4ccc(c1)c2c34`, the “photocatalytic hydrogen evolution rate” value came out at 0.198 µmol/h.

For `O=C(O)c1ccc(-c2ccc(C(=O)O)cc2)cc1`, the “photocatalytic hydrogen evolution rate” value came to 0.0704 µmol/h.

Turning to `Brc1cc2ccc3cc(Br)cc4ccc(c1)c2c34`, the “photocatalytic hydrogen evolution rate” value turned out to be 0 µmol/h.

With `Nc1cc(Br)c(F)cc1Br`, the “photocatalytic hydrogen evolution rate” value worked out at 0 µmol/h.

With `c1cc(-c2ccncc2)ccn1`, the “photocatalytic hydrogen evolution rate” value amounted to 0 µmol/h.

For `Oc1ccc(-c2ccc(O)cc2)cc1`, the “photocatalytic hydrogen evolution rate” value was found to be 0.00401 µmol/h.

With `Fc1cc(Br)c2nsnc2c1Br`, the “photocatalytic hydrogen evolution rate” value was determined as 0.241 µmol/h.

As to `Oc1ccc2cc(Br)ccc2c1-c1c(O)ccc2cc(Br)ccc12`, the “photocatalytic hydrogen evolution rate” value was 0 µmol/h.

Regarding `O=Cc1ccc(N2CCS(=O)(=O)CC2)cc1`, the “photocatalytic hydrogen evolution rate” value is 2.73 µmol/h.

`S=C=Nc1cc(Br)ccc1Br`: the “photocatalytic hydrogen evolution rate” value was determined as 0 µmol/h.

Regarding `FC(F)(F)c1cc(Br)ccc1Br`, the “photocatalytic hydrogen evolution rate” value is 0 µmol/h.

In the case of `O=Cc1ccc(N(c2ccccc2)c2ccc(-c3ccc(N(c4ccccc4)c4ccc(C=O)cc4)cc3)cc2)cc1`, the “photocatalytic hydrogen evolution rate” value worked out at 0 µmol/h.

Regarding `O=c1cc(Br)[nH]c(Br)c1`, the “photocatalytic hydrogen evolution rate” value was found to be 0 µmol/h.

In the case of `N#Cc1c(F)c(F)c(Br)c(F)c1F`, the “photocatalytic hydrogen evolution rate” value was 0 µmol/h.

`c1ccc(-c2nc3ccccc3[nH]2)cc1`: the “photocatalytic hydrogen evolution rate” value came to 0 µmol/h.

As for `N#Cc1cncc(C=O)c1`, the “photocatalytic hydrogen evolution rate” value turned out to be 0.0889 µmol/h.

`C#Cc1ccc(C#C)cc1`: the “photocatalytic hydrogen evolution rate” value stood at 0 µmol/h.

Regarding `N#CC(C#N)=C1CC(=C(C#N)C#N)c2ccccc21`, the “photocatalytic hydrogen evolution rate” value was determined as 0 µmol/h.
